Laboratory results from patent US20250339396A1 (COSMAS THERAPEUTICS DEVELOPMENT INC., priority 2021, published 2025).
Like-named read-outs stand apart in the source and are kept apart here. Blank lines part the entries; values can stand above or below the molecule they belong to.

Key:
[1] = cited from earlier work
[2] = system: neuropathic (SNI) rats; experiment: Mechanical allodynia (von Frey, 50% paw withdrawal threshold) after spared nerve injury (SNI); type: in vivo, rat; conditions: for withdrawal threshold over time vs. vehicle (two-way ANOVA, FIG. 1A): 0.5-8 h; for withdrawal threshold vs. vehicle, Bonferroni post-hoc p: after 1 hour; for AUC of withdrawal threshold vs. vehicle (FIG. 3B): p<0.01; for Area Under the Curve (AUC) of withdrawal threshold vs. vehicle, Bonferroni p (FIG. 2B) / withdrawal threshold over time vs. vehicle (two-way ANOVA, FIG. 2A): dose not given for prodrugs E, F; for withdrawal threshold over time vs. vehicle (two-way ANOVA, FIG. 2A): per os
Experimental: Experiments were performed in male Sprague-Dawley rats (body weight: 250-300 g; Charles River Laboratories, St. Constant, QC, Canada) and adult male C57BL mice (body weight: 25-30 g; inbred). All animals were housed in small groups at a constant temperature of 22° C., with food and water provided ad libitum, and maintained under a 12 h light/dark cycle (lights on at 7:00 AM; lights off at 7:00 PM). All experimental procedures were conducted in accordance with the guidelines of the Canadian Council on Animal Care, and the protocols were approved by the Animal Care Committee at McGill University.
The different prodrug compounds as synthesized in Example 2 were tested and compared with Gabapentin (150 mg/kg, purchased from Sigma Aldrich, US). Prodrug was dissolved in saline, water, or a vehicle composed of 40% PEG400 and 60% water. Gabapentin was dissolved in a vehicle composed of 40% PEG400 and 60% water. All drugs (doses see the procedure descriptions below) were administrated per os (gavage) through a curved feeding tube (20 G for rats and 22 G for mice) at the beginning of the experiment unless otherwise specified. The dose of prodrug was chosen based on its pharmacokinetic properties, and the doses of Gabapentin were chosen from literature (Lopez-Canul, Palazzo et al. 2015).
Spared nerve injury was performed according to the method of (Decosterd I and Woolf CJ, 2000), see also Lopez-Canul et al., 2015. Rats and mice were anesthetized with isoflurane. The sciatic nerve was exposed at mid-thigh level distal to the trifurcation and freed of connective tissue; the three peripheral branches (sural, common peroneal, and tibial nerves) of the sciatic nerve were exposed without stretching nerve structures. Both tibial and common peroneal nerves were ligated and transected together. Tactile allodynia was absent in healthy (pre-surgery) and sham rats, and the mechanical withdrawal threshold in rats before SNI (pre-surgery) or sham was very close to the cutoff of dynamic plantar aesthesiometer (30 g) (Ugo Basile, Varese, Italy).
On day 14 after surgery, individual rats were placed in a test chamber (clear plastic wire mesh-bottomed cage) and allowed to acclimatize for 30 to 40 minutes. Von Frey filaments (Stoelting, Wood Dale, IL) were used to measure the 50% paw withdrawal threshold using the up-and-down method reported by {Chaplan, 1994 #399}. […] Lifting of the paw indicated a positive response and prompted the use of the […], whereas absence of paw withdrawal after 5 seconds indicated a negative response and prompted the next filament of increasing weight. This paradigm continued for 4 more measurements after the initial change of the behavioral response or until 5 consecutive negative or 4 consecutive positive responses. Based on observations on normal, unoperated, and sham-operated rats, the cutoff value of 15 g was selected as the upper limit for testing because stiffer hairs tended to raise the entire limb rather than to buckle, substantially changing the nature of the stimulus. The resulting scores were used to calculate the 50% response threshold using the formula proposed by Dixon. Allodynia was considered to be present when paw withdrawal thresholds were <4 g, and drugs raising this threshold were considered antiallodynic {Lopez-Canul, 2015}. Accordingly, all nerve ligated rats were verified to be allodynic, responding to a stimulus of <4 g. Rats without mechanical allodynia were excluded. After the determination of the basal response, allodynia was assessed at baseline, 0.5, 1, 1.5, 2, 2.5, 3, 4, 5, 6, 7, and 8 hours post-administration for each treatment described below. Groups of 5 to 6 rats per treatment were used, with each animal being used for 1 treatment only. […]

[3] = Oral bioavailability and brain penetrance of UCM765 and UCM924
[4] = dose of 40 mg/kg; cited from earlier work
[5] = in vivo; cited from earlier work

Compound: COc1ccc2cccc(CCNC(C)=O)c2c1 [Agomelatine]
- bioavailability ([1]; at the therapeutic oral dose): < 5%

Compound: COc1ccc2[nH]cc(CCNC(C)=O)c2c1 [MLT, Melatonin]
- half-life ([1]; in vivo): < 30 min

Compound: CC(=O)N(CCN(c1ccc(F)cc1)c1cccc(Br)c1)COC(=O)C(C)(C)C [Prodrug A, (N-(2-((3-bromophenyl)(4-fluorophenyl)amino)ethyl)acetamido) methyl pivalate]
- Area Under the Curve (AUC) of withdrawal threshold vs. vehicle, Bonferroni p (FIG. 1B) ([2]; 50 mg/kg per os): < 0.01
- withdrawal threshold over time vs. vehicle (two-way ANOVA, FIG. 1A) ([2]; 50 mg/kg per os): significantly increased the withdrawal threshold
- withdrawal threshold vs. vehicle, Bonferroni post-hoc p ([2]; 50 mg/kg per os): < 0.001

Compound: CCOC(=O)OCN(CCN(c1ccc(F)cc1)c1cccc(Br)c1)C(C)=O [Prodrug B, (N-(2-((3-bromophenyl)(4-fluorophenyl)amino)ethyl)acetamido) methyl ethyl carbonate]
- withdrawal threshold over time vs. vehicle (two-way ANOVA, FIG. 1A) ([2]; 50 mg/kg per os): significantly increased the withdrawal threshold
- withdrawal threshold vs. vehicle, Bonferroni post-hoc p ([2]; 50 mg/kg per os): < 0.0001

Compound: CC(=O)N(CCN(c1ccc(F)cc1)c1cccc(Br)c1)C(=O)OC(C)OC(=O)CN.Cl (stereo not shown) [Prodrug C, 1-((acetyl(2-((3-bromophenyl)(4-fluorophenyl)amino)ethyl)carbamoyl)oxy)ethyl 2-aminoacetate hydrochloride]
- withdrawal threshold over time vs. vehicle (two-way ANOVA, FIG. 1A) ([2]; 50 mg/kg per os): significantly increased the withdrawal threshold

Compound: CC(=O)N(CCN(c1ccc(F)cc1)c1cccc(Br)c1)C(=O)OCOC(=O)CN [Prodrug D-2, ((acetyl(2-((3-bromophenyl)(4-fluorophenyl)amino)ethyl)carbamoyl)oxy)methyl 2-aminoacetate methane-sulfonate]
- effect on withdrawal threshold in the SNI model (FIG. 3A) ([2]; 50 mg/kg): not effective
- AUC of withdrawal threshold vs. vehicle (FIG. 3B) ([2]; 50 mg/kg): significant pro-nociceptive effect
- effect on withdrawal threshold in the SNI model (FIG. 3A) ([2]; 100 mg/kg): effective
- AUC of withdrawal threshold vs. vehicle (FIG. 3B) ([2]; 100 mg/kg): modest, but significant anti-nociceptive effect

Compound: CC(=O)N(CCN(c1ccc(F)cc1)c1cccc(Br)c1)C(=O)OCOC(=O)C1CCCN1.Cl (stereo not shown) [Prodrug E, ((acetyl(2-((3-bromophenyl)(4-fluorophenyl)amino)ethyl)carbamoyl)oxy)methyl pyrrolidine-2-carboxylate hydrochloride]
- Area Under the Curve (AUC) of withdrawal threshold vs. vehicle, Bonferroni p (FIG. 2B) [2]: < 0.05
- withdrawal threshold vs. vehicle, post-hoc p (FIG. 2A) ([2]; hour 2, 4 and 5): < 0.05
- withdrawal threshold, treatment vs. vehicle p (FIG. 2A) ([2]; overall): 0.04
- withdrawal threshold over time vs. vehicle (two-way ANOVA, FIG. 2A) [2]: different from vehicle

Compound: CC(=O)N(CCN(c1ccc(F)cc1)c1cccc(Br)c1)C(=O)OCOC(=O)[C@@H](N)CC(C)C.Cl [Prodrug F]
- withdrawal threshold vs. vehicle, Bonferroni post-hoc p (FIG. 2A) ([2]; after 5, 6 and 7 hours): < 0.0001
- withdrawal threshold vs. vehicle, Bonferroni post-hoc p (FIG. 2A) ([2]; after 3 hours): 0.05
- Area Under the Curve (AUC) of withdrawal threshold vs. vehicle, Bonferroni p (FIG. 2B) [2]: < 0.001
- withdrawal threshold over time vs. vehicle (two-way ANOVA, FIG. 2A) [2]: significant difference

Compound: CCC(=O)NCC[C@@H]1CCc2ccc3c(c21)CCO3 [Ramelteon]
- absolute oral bioavailability ([1]; extensive first-pass metabolism): 1.8%

- Kp ([3]; brain): 2.5
- bioavailability ([3]; in vivo, po): 2%
Compound: COc1cccc(N(CCNC(C)=O)c2ccccc2)c1 [UCM765, N-{2-[(3-methoxyphenyl)-phenylamino]ethyl}acetamide]
- restorative sleep (NREM sleep) [4]: facilitated restorative sleep
- anti-anxiety properties [5]: possesses anti-anxiety properties
